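The compound was tested at five concentrations on cells cultured in 96-well plates, with a 48-hour exposure period. GI50: concentration for 50% inhibition of growth. TGI: concentration producing complete growth inhibition.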
What was measured:
Test in all cases: NCI anticancer screen, dose series, 48 h
MDA-N = test system: MDA-N
DLD-1 colon = test system: DLD-1 colon
DMS 114 small cell lung = test system: DMS 114 small cell lung
HOP-18 NSCLC = test system: HOP-18 NSCLC
LXFL 529 NSCLC = test system: LXFL 529 NSCLC
M19-MEL melanoma = test system: M19-MEL melanoma
RXF-631 renal = test system: RXF-631 renal
XF 498 CNS = test system: XF 498 CNS

Cc1cc(C)c2c(=O)cc(-c3ccc(F)cc3)[nH]c2n1
GI50 (MDA-N): 25 µM
TGI (MDA-N): 67.9 µM

OC1CCC(COC(c2ccccc2)(c2ccccc2)c2ccccc2)O1 (centres undefined)
TGI (MDA-N): 34.5 µM

CC[C@@]1(O)C(=O)OCc2c1cc1n(c2=O)Cc2cc3c(OC)cccc3nc2-1
TGI (DLD-1 colon): 19.3 µM
TGI (DMS 114 small cell lung): 0.28 µM
TGI (HOP-18 NSCLC): > 100 µM
TGI (LXFL 529 NSCLC): > 23.1 µM
TGI (M19-MEL melanoma): 0.643 µM
GI50 (MDA-N): > 100 µM
TGI (MDA-N): > 100 µM
TGI (RXF-631 renal): 1.45 µM
TGI (XF 498 CNS): 0.876 µM

S=C1NC(c2ccccc2)=NC(Cc2ccccc2)(c2ccccc2)N1c1ccccc1 (centres undefined)
TGI (DLD-1 colon): > 100 µM
TGI (DMS 114 small cell lung): > 100 µM
TGI (HOP-18 NSCLC): > 100 µM
TGI (LXFL 529 NSCLC): > 100 µM
TGI (M19-MEL melanoma): > 100 µM
TGI (RXF-631 renal): > 100 µM

COC1OC(CO)C(O)C(NC(=O)N(C)N=O)C1O (centres undefined)
TGI (DLD-1 colon): > 100 µM
TGI (DMS 114 small cell lung): > 100 µM
TGI (HOP-18 NSCLC): > 100 µM
TGI (LXFL 529 NSCLC): > 100 µM
TGI (M19-MEL melanoma): > 100 µM
TGI (XF 498 CNS): > 100 µM

OCC(O)COc1ccc(F)cc1 (centres undefined)
TGI (DLD-1 colon): > 100 µM
TGI (DMS 114 small cell lung): > 100 µM
TGI (HOP-18 NSCLC): > 100 µM
TGI (LXFL 529 NSCLC): > 100 µM
TGI (M19-MEL melanoma): > 100 µM
TGI (XF 498 CNS): > 100 µM

C#CCOCCCC(=O)O
TGI (MDA-N): > 100 µM

CCOC(=O)Nc1nc(-c2ccccc2)c(C)s1
TGI (MDA-N): > 100 µM

O=C(Cc1c(C(=O)Nc2ccccc2)sc(C(=O)Nc2ccccc2)c1CC(=O)Nc1ccccc1)Nc1ccccc1
TGI (DLD-1 colon): > 100 µM
TGI (DMS 114 small cell lung): > 100 µM
TGI (HOP-18 NSCLC): > 100 µM
TGI (LXFL 529 NSCLC): > 100 µM
TGI (M19-MEL melanoma): > 100 µM
TGI (XF 498 CNS): > 100 µM

CC(=O)OC1C(COC(N)=O)OC(n2c(-c3ccc(C)cc3)cc(-c3ccccc3)c(C#N)c2=O)C(OC(C)=O)C1OC(C)=O (centres undefined)
TGI (DLD-1 colon): > 100 µM
TGI (HOP-18 NSCLC): > 100 µM
TGI (LXFL 529 NSCLC): > 100 µM
TGI (M19-MEL melanoma): > 100 µM
TGI (RXF-631 renal): > 100 µM

CSc1nc(SC)c2c(C)cn(Cc3ccccc3)c2n1
TGI (MDA-N): > 100 µM

O=C1C2=C(c3ccccc31)C(c1ccccc1Cl)NC(=S)N2 (centres undefined)
TGI (DLD-1 colon): > 100 µM
TGI (LXFL 529 NSCLC): > 100 µM
TGI (M19-MEL melanoma): > 100 µM
TGI (XF 498 CNS): > 100 µM

O=C(O)c1cc(C(=O)C(=O)c2cc(C(=O)O)c(O)c3ccccc23)c2ccccc2c1O
TGI (MDA-N): > 100 µM

C=CCC1=C2CCCCC2CCC1=O (centres undefined)
TGI (DLD-1 colon): > 100 µM
TGI (DMS 114 small cell lung): > 100 µM
TGI (LXFL 529 NSCLC): > 100 µM
TGI (M19-MEL melanoma): > 100 µM
TGI (RXF-631 renal): > 100 µM
TGI (XF 498 CNS): > 100 µM

O=C(O)COc1ccc2c3c1C(=O)CCC3CO2 (centres undefined)
TGI (DLD-1 colon): > 100 µM
TGI (DMS 114 small cell lung): > 100 µM
TGI (HOP-18 NSCLC): > 100 µM
TGI (LXFL 529 NSCLC): > 100 µM
TGI (M19-MEL melanoma): > 100 µM
TGI (XF 498 CNS): > 100 µM

CCOC(=O)c1sc(Nc2cc(Cl)ccc2Cl)nc1C
TGI (DLD-1 colon): > 100 µM
TGI (DMS 114 small cell lung): > 100 µM
TGI (HOP-18 NSCLC): > 100 µM
TGI (LXFL 529 NSCLC): > 100 µM
TGI (M19-MEL melanoma): > 100 µM
TGI (RXF-631 renal): > 100 µM
TGI (XF 498 CNS): > 100 µM

CCCC(c1cc(C(C)(C)C)c(O)cc1C)c1cc(C(C)(C)C)c(O)cc1C
TGI (MDA-N): 3.91 µM

O=P1(O)c2ccccc2CSCc2ccccc21
TGI (MDA-N): > 100 µM

COC(=O)C(=O)C(C(=O)C(=O)Nc1ccccc1C(N)=O)c1nc2ccc([N+](=O)[O-])cc2[nH]c1=O (centres undefined)
TGI (DLD-1 colon): > 100 µM
TGI (HOP-18 NSCLC): > 100 µM
TGI (LXFL 529 NSCLC): > 100 µM
TGI (M19-MEL melanoma): > 100 µM
TGI (RXF-631 renal): > 100 µM
TGI (XF 498 CNS): > 100 µM

CCCCN(CCCC)C(=O)C(=O)C(C(=O)C(=O)OC)c1nc2ccccc2o1 (centres undefined)
TGI (DLD-1 colon): > 100 µM
TGI (DMS 114 small cell lung): > 100 µM
TGI (HOP-18 NSCLC): > 100 µM
TGI (LXFL 529 NSCLC): > 100 µM
TGI (M19-MEL melanoma): > 100 µM
TGI (RXF-631 renal): > 100 µM
TGI (XF 498 CNS): > 100 µM

Cn1cnc([N+](=O)[O-])c1Sc1nccn1-c1ccccc1
TGI (DLD-1 colon): > 100 µM
TGI (DMS 114 small cell lung): 91.2 µM
TGI (HOP-18 NSCLC): 54.3 µM
TGI (M19-MEL melanoma): > 100 µM
TGI (XF 498 CNS): > 100 µM

COC(=O)c1oc([N+](=O)[O-])c(-c2ccccc2)c1-c1ccccc1
TGI (DLD-1 colon): > 100 µM
TGI (DMS 114 small cell lung): > 100 µM
TGI (HOP-18 NSCLC): > 100 µM
TGI (LXFL 529 NSCLC): > 100 µM
TGI (M19-MEL melanoma): > 100 µM
TGI (RXF-631 renal): > 100 µM
TGI (XF 498 CNS): > 100 µM

Cc1cc2c(=O)cc(-c3ccc(Cl)c(Cl)c3)oc2c(C(=O)O)c1C
TGI (DLD-1 colon): > 100 µM
TGI (DMS 114 small cell lung): > 100 µM
TGI (HOP-18 NSCLC): > 100 µM
TGI (LXFL 529 NSCLC): > 100 µM
TGI (M19-MEL melanoma): > 100 µM
TGI (XF 498 CNS): > 100 µM

Cc1cc2c(cc1C)[n+](=O)c(C(=O)CC(=O)C(=O)Nc1ccccc1C)c(C)n2[O-]
TGI (HOP-18 NSCLC): > 100 µM
TGI (LXFL 529 NSCLC): > 100 µM
TGI (M19-MEL melanoma): > 100 µM
TGI (RXF-631 renal): > 100 µM

CN(CC(=O)O)S(=O)(=O)c1ccc(Cl)cc1
TGI (DLD-1 colon): > 100 µM
TGI (HOP-18 NSCLC): > 100 µM
TGI (LXFL 529 NSCLC): > 100 µM
TGI (M19-MEL melanoma): > 100 µM
TGI (XF 498 CNS): > 100 µM

c1ccc2c(CNCCCN3CCN(CCCNCc4cccc5ccccc45)CC3)cccc2c1
TGI (DLD-1 colon): 3.69 µM
TGI (DMS 114 small cell lung): 3.46 µM
TGI (HOP-18 NSCLC): 18.7 µM
TGI (LXFL 529 NSCLC): 3.17 µM
TGI (M19-MEL melanoma): 3.37 µM
TGI (RXF-631 renal): 2.41 µM
TGI (XF 498 CNS): 3.17 µM

N#CCC(=O)N/N=C(/C(=O)Nc1ccccc1)C1C(=O)N(c2ccccc2)N=C1N (centres undefined)
TGI (DLD-1 colon): > 100 µM
TGI (DMS 114 small cell lung): > 100 µM
TGI (HOP-18 NSCLC): > 100 µM
TGI (LXFL 529 NSCLC): > 100 µM
TGI (M19-MEL melanoma): > 100 µM
TGI (RXF-631 renal): > 100 µM
TGI (XF 498 CNS): > 100 µM

Cc1cc2c(=O)cc(-c3ccc(O)cc3)oc2c(C(=O)O)c1C
TGI (DLD-1 colon): > 100 µM
TGI (DMS 114 small cell lung): > 100 µM
TGI (HOP-18 NSCLC): > 100 µM
TGI (LXFL 529 NSCLC): > 100 µM
TGI (M19-MEL melanoma): > 100 µM
TGI (XF 498 CNS): > 100 µM

COc1ccc(C(=O)O[C@@H]2CCN3CC[C@H](C)[C@H]23)cc1
TGI (MDA-N): > 100 µM

CC1=CC=C2C(C)(C)CC[C@@H]3OC(=O)[C@H]1[C@]23C
TGI (DLD-1 colon): > 100 µM
TGI (DMS 114 small cell lung): > 100 µM
TGI (HOP-18 NSCLC): > 100 µM
TGI (LXFL 529 NSCLC): > 100 µM
TGI (M19-MEL melanoma): > 100 µM
TGI (RXF-631 renal): > 100 µM
TGI (XF 498 CNS): > 100 µM

CCOC(=O)c1cc2c(OC)cc(OC)cc2oc1=O
TGI (MDA-N): > 100 µM

Cc1cc2c(=O)cc(-c3ccc(C(=O)O)cc3)oc2c(C(N)=O)c1C
TGI (DLD-1 colon): > 100 µM
TGI (DMS 114 small cell lung): > 100 µM
TGI (LXFL 529 NSCLC): > 100 µM
TGI (M19-MEL melanoma): > 100 µM
TGI (RXF-631 renal): > 100 µM

Cc1cc2c(=O)cc(-c3ccc(Cl)cc3Cl)oc2c(C(=O)O)c1C
TGI (DLD-1 colon): > 100 µM
TGI (DMS 114 small cell lung): > 100 µM
TGI (HOP-18 NSCLC): > 100 µM
TGI (LXFL 529 NSCLC): > 100 µM
TGI (XF 498 CNS): > 100 µM

CCC(CO)COC(=O)/C=C/C(=O)OCC(CC)CO (centres undefined)
TGI (DLD-1 colon): > 100 µM
TGI (DMS 114 small cell lung): > 100 µM
TGI (HOP-18 NSCLC): > 100 µM
TGI (LXFL 529 NSCLC): > 100 µM
TGI (M19-MEL melanoma): > 100 µM
TGI (RXF-631 renal): > 100 µM
TGI (XF 498 CNS): > 100 µM

O=[N+]([O-])c1cccc(C=NC23CC4CC(CC(C4)C2)C3)c1
TGI (DLD-1 colon): > 100 µM
TGI (DMS 114 small cell lung): > 100 µM
TGI (HOP-18 NSCLC): > 100 µM
TGI (LXFL 529 NSCLC): > 100 µM
TGI (M19-MEL melanoma): > 100 µM
TGI (XF 498 CNS): > 100 µM

CCOc1ccc(N=C2NC(=O)C(CC(=O)Nc3ccc(Cl)cc3Cl)S2)cc1 (centres undefined)
TGI (DLD-1 colon): > 100 µM
TGI (DMS 114 small cell lung): > 100 µM
TGI (LXFL 529 NSCLC): > 100 µM
TGI (M19-MEL melanoma): > 100 µM
TGI (RXF-631 renal): > 100 µM
TGI (XF 498 CNS): > 100 µM

CN1C(=O)CNS1(=O)=O
TGI (DLD-1 colon): > 100 µM
TGI (DMS 114 small cell lung): > 100 µM
TGI (LXFL 529 NSCLC): > 100 µM
TGI (RXF-631 renal): > 100 µM
TGI (XF 498 CNS): > 100 µM

CC(C)c1ccc2c(c1)CCC1C(C)(CN)CCCC21C (centres undefined)
TGI (MDA-N): 2.86 µM

CNC(=O)N(CCCC(NC(C)=O)C(=O)NCc1ccccc1)Cc1ccccc1 (centres undefined)
TGI (DLD-1 colon): > 100 µM
TGI (DMS 114 small cell lung): > 100 µM
TGI (LXFL 529 NSCLC): > 100 µM
TGI (M19-MEL melanoma): > 100 µM
TGI (XF 498 CNS): > 100 µM

Reference: PubChem BioAssay (NCI)
